Laboratory results reported in article PMC10222323, “Novel Biotinylated Cu(II)-Phenanthroline Complexes: 2D and 3D Cytotoxic Activity and Mechanistic Insight” (Molecules, 2023).

Legend:
[1] = test system: genomic DNA of MDA-MB-231 cells; settings: 3 h; for cells with lesioned genomic DNA (comets): 4 μM, fraction of treated cells
Experimental: As proof of the principle of their DNA-targeting ability, the alkaline single-cell gel electrophoresis (Comet assay, Figure 4) assay was performed to evaluate cellular genomic DNA lesions induced by tested complexes. […] MDA-MDB-231 cells were exposed for 3 h to 4 μM of tested compounds or 200 µM of the reference drug chlorambucil. Figure 4A depicts the relative percentage of comets and the number of cells forming a comet relative to the total number of detected cells per each condition in two randomly captured fields from two independent experiments. […] On the other hand, some reports highlighted protein disulphide isomerase (PDI) as an emerging target for copper complexes. On this basis, we also evaluated the ability of our complexes to act as PDI inhibitors. The enzyme was treated with 25 µM of complexes 2 and 4, and the ability to hamper its activity was assessed by a biochemical colourimetric method (Proteostat kit).
About 3 × 10^4 MDA-MB-231 cells were seeded in 25 cm^2 flasks in a growth medium. After overnight incubation, cells were treated for 3 h with […] of tested compounds and processed as previously described. Pictures were captured with a Zeiss LSM-800 confocal microscope (Zeiss, Oberkochen, Germany). All photos were analyzed by the Zen 2.3 system (Zeiss, Oberkochen, Germany).
Figure 4 Mechanistic studies. (A) Comet assay: MDA-MDB-231 cells were treated for 3 h with 4 μM of tested compounds 2 and 4 or 200 µM of the reference drug chlorambucil. The relative percentage of comets (number of cells forming a comet/total number of cells) was detected in two randomly captured fields from two independent experiments. (B) PDI inhibition induced by tested compounds was measured by Proteostat PDI assay kit. The PDI inhibitor Bacitracine (0.5 mM) was used as a positive control. Error bars indicate S.D. ** p < 0.01 compared with control.

[2] = biological target: T1, protein disulphide isomerase (PDI) (Homo sapiens, UniProt P07237); test: PDI reductase activity (PROTEOSTAT PDI assay kit); assay type: biochemical; settings: 25 µM of complex
T1 construct: purchased Enzo Life Sciences, Lausen, Switzerland
Experimental: MDA-MDB-231 cells were exposed for 3 h to 4 μM of tested compounds or 200 µM of the reference drug chlorambucil. […] On the other hand, some reports highlighted protein disulphide isomerase (PDI) as an emerging target for copper complexes.
The reductase activity of PDI was assayed by measuring the PDI-catalysed reduction of insulin in the presence of increasing concentrations of the tested compounds by using the PROTEOSTAT PDI assay kit (Enzo Life Sciences, Lausen, Switzerland). Experiments were performed according to the manufacturer’s instructions as previously described. IC50 values were calculated by the 4-PL model.
Figure 4 Mechanistic studies. (A) Comet assay: MDA-MDB-231 cells were treated for 3 h with 4 μM of tested compounds 2 and 4 or 200 µM of the reference drug chlorambucil. […] The PDI inhibitor Bacitracine (0.5 mM) was used as a positive control.

MDA-MB-231 cells [3] = settings: 24 h, 2 and 3 μM
Experimental: The ability to enter cancer cells is a very important factor to determine the biological activity of metal-based compounds. Consequently, with the aim of correlating the antiproliferative activity elicited by all the newly developed complexes and their accumulation profiles into cancer cells, the Cu content was evaluated in the SMVT overexpressing MDA-MB-231 cells. Uptake profiles were determined by treating cancer cells for 24 h with two concentrations (2 and 3 μM) of tested complexes.
MDA-MB-231 cells (2.5 × 10^6) were seeded in 75 cm^2 flasks in a growth medium (20 mL). Following 24 h, cells were treated for 24 h with tested complexes and samples processed as previously described.
Figure 2 Cellular uptake of complexes 1–4 in drug-treated MDA-MB-231 human breast cancer cells. Cells were incubated for 24 h with […] of tested complexes. The amount of cellular Cu was estimated by GF-AAS. Error bars are S.D.

MDA-MB-231 cells [4] = settings: 3 μM, 24 and 48 h
[5] = test system: six different cancer cell lines; test: MTT cytotoxicity, average over the cancer cell line panel; assay type: cell-based, human; settings: 2D assays, average over the cancer cell lines of Table 1
Experimental: (§1) The in vitro anticancer potential of the newly developed complexes and of the ligands has been tested on six different cancer cell lines including PSN-1 (pancreatic), HCT-15 (colorectal with low sensitivity for cisplatin), 2008 (ovarian), A431 (cervical), MDA-MB-231 (breast), and U1285 (lung) cancer cells. For comparison purposes, cisplatin efficacy was assessed under the same experimental conditions.
Due to note, all the complexes were very effective in the MDA-MB-231 cell line, which overexpress the SMVT (sodium-dependent multivitamin transporter) receptor, which is well known to be involved in the intracellular translocation of biotin [24].
(§2) The growth inhibitory effect toward the tumour cell lines was evaluated by the MTT test as previously described.

[6] = test system: MDA-MB-231 (breast) cancer cells; test: MTT cytotoxicity test, 72 h, MDA-MB-231; assay type: cell-based, human; settings: mean ± S.D.
Experimental: as §1
Tested compounds were dissolved in DMSO and added to the cell-growth medium to a final solvent concentration of 0.5%, which is well reported to not have cytotoxic effects on cell viability. Cisplatin (Sigma Chemical Co., St. Louis, MO, USA) was dissolved in a physiologic solution (0.9% sodium chloride).
Human colon (HCT-15), pancreatic (PSN-1), and breast (MDA-MB-231) carcinoma-cell lines were obtained from the American Type Culture Collection (ATCC, Rockville, MD). Human cervical carcinoma (A431) cells were kindly provided by Prof. F. Zunino (Division of Experimental Oncology B, Istituto Nazionale dei Tumori, Milan). Human ovarian carcinoma (2008) cells and their cisplatin-resistant counterpart (C13*) were kindly provided by Prof. G. Marverti (Dipartimento di Scienze Biomediche, Università di Modena University, Italy). Cell lines were cultured in RPMI-1640 or DMEM medium (Euroclone) added with 10% fetal calf serum (Euroclone, Milan, Italy), antibiotics (50 units per mL penicillin, and 50 μg mL^−1 streptomycin), and 2 mM L-glutamine.
as §2

T1 sequence (P07237 18-508): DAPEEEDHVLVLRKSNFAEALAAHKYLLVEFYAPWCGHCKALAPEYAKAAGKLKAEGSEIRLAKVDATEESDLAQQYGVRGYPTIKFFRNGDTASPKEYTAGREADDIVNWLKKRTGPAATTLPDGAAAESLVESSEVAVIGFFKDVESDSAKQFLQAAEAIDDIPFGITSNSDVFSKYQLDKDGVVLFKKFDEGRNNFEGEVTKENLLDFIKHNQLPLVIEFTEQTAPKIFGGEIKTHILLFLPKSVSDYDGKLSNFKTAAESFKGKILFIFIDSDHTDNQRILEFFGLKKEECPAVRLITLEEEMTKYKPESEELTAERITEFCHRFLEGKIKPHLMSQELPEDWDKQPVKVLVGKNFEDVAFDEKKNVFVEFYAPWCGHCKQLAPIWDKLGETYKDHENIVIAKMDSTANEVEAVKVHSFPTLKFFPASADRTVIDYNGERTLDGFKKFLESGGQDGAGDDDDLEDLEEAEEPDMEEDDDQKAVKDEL

Compound | DNA damaging efficacy compared with chlorambucil ([1]; 4 μM compound vs 200 µM chlorambucil) | cells with lesioned genomic DNA (comets) [1] | PDI inhibition [2] [%] | Cu intracellular content (uptake) (MDA-MB-231 cells [3]) | apoptosis induction (Hoechst staining) (MDA-MB-231 cells [4]) | IC50 [5] [nM] | IC50 [6] [nM]
O=C(CCCC[C@@H]1SC[C@@H]2NC(=O)N[C@@H]21)NN=C1C(=O)c2ccc[n+]3c2-c2c1ccc[n+]2[Cu-2]31[n+]2cccc3ccc4ccc[n+]1c4c32.O=[N+]([O-])[O-].O=[N+]([O-])[O-] [Complex 4, [Cu(phen)(phendione-biotin)](NO3)2] | much higher than that induced by the reference compound chlorambucil | one third | 15 | most internalised into cancer cells | morphological features typical of cells undergoing apoptosis | 800 | 600 ± 100
O=C(CCCC[C@@H]1SC[C@@H]2NC(=O)N[C@@H]21)NN=C1C(=O)c2ccc[n+]3c2-c2c1ccc[n+]2[Cu-2]3([Cl])[Cl] [Complex 2, [Cu(phendione-biotin)Cl2]] | – | at least one fourth | 45 | – | – | – | 1400 ± 100
